Patent publication US20060198925A1, “Food preservative” (priority 2003, published 2006)

What was measured:
yeast = experiment: Final proofing time of dough containing the additive; format: cell-based; conditions: 6.5 grams additive in dough; final proofing at 40° C. and relative humidity of 80%; time of rising to a specific maximum volume
Method: Then a dough comprising the following ingredients was prepared: [table] Then a further additive was mixed with the above-mentioned dough: The four above-mentioned doughs were mixed for half a minute at slow speed in a McDuffy mixer and then for 8.5 minutes at high speed in the same mixer. The dough temperature was 26° C. The resting time was 2 minutes (at room temperature). After said resting time 420 grams of each dough was taken, and the doughs (each of 420 grams) were then rounded up softly by hand. The initial proofing time was 6 minutes (at room temperature), after which the doughs were moulded into a certain baking form. The final proofing time (at 40° C. and a relative humidity of 80%) was determined, which appeared to be dependent on the type of further additive as contained in the four above-mentioned doughs. With “final proofing time” it is herein meant the time period of rising the dough, before baking, to a certain extent being a specific maximum volume. After this final proofing the doughs were baked for 20 minutes in an oven at 210° C. (top oven temperature) and at 230° C. (bottom oven temperature). The four bread products as obtained were then stored at room temperature (and at a relative humidity of 80%). During 1 month it was determined by means of visual observation whether or not moulds were formed on the four bread products.

moulds = experiment: Mould formation on stored bread product (visual observation); format: cell-based; conditions: bread stored at room temperature, relative humidity of 80%, visual observation during 1 month
Method: The four above-mentioned doughs were mixed for half a minute at slow speed in a McDuffy mixer and then for 8.5 minutes at high speed in the same mixer. The dough temperature was 26° C. The resting time was 2 minutes (at room temperature). After said resting time 420 grams of each dough was taken, and the doughs (each of 420 grams) were then rounded up softly by hand. The initial proofing time was 6 minutes (at room temperature), after which the doughs were moulded into a certain baking form. The final proofing time (at 40° C. and a relative humidity of 80%) was determined, which appeared to be dependent on the type of further additive as contained in the four above-mentioned doughs. With “final proofing time” it is herein meant the time period of rising the dough, before baking, to a certain extent being a specific maximum volume. After this final proofing the doughs were baked for 20 minutes in an oven at 210° C. (top oven temperature) and at 230° C. (bottom oven temperature). The four bread products as obtained were then stored at room temperature (and at a relative humidity of 80%). During 1 month it was determined by means of visual observation whether or not moulds were formed on the four bread products.

Structure (SMILES): CCC(=O)[O-].CCC(=O)[O-].[Ca+2] [Comparative, calcium propionate]
- Final proofing time of dough (yeast): 90 min
- Mould formation on bread product (moulds): no
